The values below come from patent publication US8207193B2 (priority 2006, dated 2012).

As a reminder, the IC50 is the concentration that inhibits the measured activity by half. Read a low IC50 as higher potency.

For this experiment, the target named is human muscarinic acetylcholine M3 receptor (M3-ACh) (Homo sapiens, UniProt P20309). As to the kind of experiment: biochemical. Format: binding.
Setting [1] is: pIC50 of comparative compounds containing a cyclooctyl (C8) ring in place of cycloheptyl (C7).
[2] abbreviates: pIC50 of comparative compounds containing a cyclohexyl (C6) ring in place of cycloheptyl (C7).

Chain of human muscarinic acetylcholine M3 receptor (M3-ACh) (P20309 whole entry): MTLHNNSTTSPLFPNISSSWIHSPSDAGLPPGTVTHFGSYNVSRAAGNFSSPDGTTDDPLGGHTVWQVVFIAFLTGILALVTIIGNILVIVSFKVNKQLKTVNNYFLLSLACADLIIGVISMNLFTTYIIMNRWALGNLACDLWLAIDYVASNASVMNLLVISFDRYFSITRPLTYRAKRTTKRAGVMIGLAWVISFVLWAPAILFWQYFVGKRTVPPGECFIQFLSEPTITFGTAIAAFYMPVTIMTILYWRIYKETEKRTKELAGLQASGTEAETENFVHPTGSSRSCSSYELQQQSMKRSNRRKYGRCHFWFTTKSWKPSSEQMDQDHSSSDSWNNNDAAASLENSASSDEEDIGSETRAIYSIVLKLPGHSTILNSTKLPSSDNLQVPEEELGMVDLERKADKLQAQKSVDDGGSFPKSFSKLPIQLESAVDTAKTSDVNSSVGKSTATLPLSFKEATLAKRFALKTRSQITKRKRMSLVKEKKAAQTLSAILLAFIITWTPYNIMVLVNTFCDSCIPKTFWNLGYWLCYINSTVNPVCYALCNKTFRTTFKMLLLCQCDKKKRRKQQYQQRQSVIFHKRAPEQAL

Under “M3 binding IC50”, `NC(=O)C[N+]12CCC(CC1)[C@@H](OC(=O)C1(c3ccccc3)CCCCCC1)C2` [Example 36, (3R)-1-(2-Amino-2-oxoethyl)-3-{[(1-phenylcycloheptyl)carbonyl]oxy}-1-azoniabicyclo[2.2.2]octane Bromide] came in with an IC50 of under 2 nM.
The same measure, in the same setting: the result for `Cc1cc(NC(=O)C[N+]23CCC(CC2)[C@@H](OC(=O)C2(c4ccccc4)CCCCCC2)C3)on1` [Example 39, (3R)-1-{2-[(3-Methylisoxazol-5-yl)amino]-2-oxoethyl}-3-{[(1-phenylcycloheptyl)carbonyl]oxy}-1-azoniabicyclo[2.2.2]octane Bromide] reads under 2 nM.
With `C[N+]12CCC(CC1)[C@@H](OC(=O)C1(c3ccccc3)CCCCCCC1)C2` [compound 8, (3R)-1-Methyl-3-{[(1-phenylcyclooctyl)carbonyl]oxy}-1-azoniabicyclo[2.2.2]octane Iodide, reference compound], the IC50 under setting [1] is 39.8 nM.
Under setting [2], `O=C(C[N+]12CCC(CC1)[C@@H](OC(=O)C1(c3ccccc3)CCCCC1)C2)Nc1cnccn1` [compound 6, (3R)-1-[2-Oxo-2-(pyrazin-2-ylamino)ethyl]-3-{[(1-phenylcyclohexyl)carbonyl]oxy}-1-azoniabicyclo[2.2.2]octane Bromide, reference compound] had a concentration for half-maximal inhibition (IC50) of 0.2 nM.
`O=C(C[N+]12CCC(CC1)[C@@H](OC(=O)C1(c3ccccc3)CCCCCC1)C2)NCCOc1ccccc1` [Example 18, (3R)-1-{2-Oxo-2-[(2-phenoxyethyl)amino]ethyl}-3-{[(1-phenylcycloheptyl)carbonyl]oxy}-1-azoniabicyclo[2.2.2]octane Bromide] yielded an IC50 (M3 binding IC50) of under 2 nM.
For `COc1cccc(C[N+]23CCC(CC2)[C@@H](OC(=O)C2(c4ccccc4)CCCCCC2)C3)c1` [Example 10, (3R)-1-(3-Methoxybenzyl)-3-{[(1-phenylcycloheptyl)carbonyl]oxy}-1-azoniabicyclo[2.2.2]octane Bromide], the IC50 (M3 binding IC50) is 2 to 10 nM and the IC50 (pIC50) is 3.16 nM.
`C[N+]12CCC(CC1)[C@@H](OC(=O)C1(c3ccccc3)CCCCC1)C2` [compound 5, (3R)-1-Methyl-3-{[(1-phenylcyclohexyl)carbonyl]oxy}-1-azoniabicyclo[2.2.2]octane Iodide, reference compound] registered an IC50 under setting [2] of 50.1 nM.
`O=C(C[N+]12CCC(CC1)[C@@H](OC(=O)C1(c3ccccc3)CCCCCC1)C2)N1CCCC1` [Example 14, (3R)-1-(2-Oxo-2-pyrrolidin-1-ylethyl)-3-{[(1-phenylcycloheptyl)carbonyl]oxy}-1-azoniabicyclo[2.2.2]octane Bromide] registered an IC50 (M3 binding IC50) of 2 to 10 nM.
On the same count and under the same terms, the result for `O=C(C[N+]12CCC(CC1)[C@@H](OC(=O)C1(c3ccccc3)CCCCCC1)C2)Nc1cncc(Cl)n1` [Example 31, (3R)-1-{2-[(6-Chloropyrazin-2-yl)amino]-2-oxoethyl}-3-{[(1-phenylcycloheptyl)carbonyl]oxy}-1-azoniabicyclo[2.2.2]octane Bromide] reads under 2 nM.
The same measure, in the same setting: as for `COc1cccc(CC[N+]23CCC(CC2)[C@@H](OC(=O)C2(c4ccccc4)CCCCCC2)C3)c1` [Example 24, (3R)-1-[2-(3-Methoxyphenyl)ethyl]-3-{[(1-phenylcycloheptyl)carbonyl]oxy}-1-azoniabicyclo[2.2.2]octane Bromide], the figure is under 2 nM; as for `O=C(C[N+]12CCC(CC1)[C@@H](OC(=O)C1(c3ccccc3)CCCCCC1)C2)c1cccc(F)c1` [Example 19, (3R)-1-[2-(3-Fluorophenyl)-2-oxoethyl]-3-{[(1-phenylcycloheptyl)carbonyl]oxy}-1-azoniabicyclo[2.2.2]octane Bromide], under 2 nM.
`O=C(C[N+]12CCC(CC1)[C@@H](OC(=O)C1(c3ccccc3)CCCCCC1)C2)Nc1ccon1` [Example 4, (3R)-1-[2-(Isoxazol-3-ylamino)-2-oxoethyl]-3-{[(1-phenylcycloheptyl)carbonyl]oxy}-1-azoniabicyclo[2.2.2]octane Bromide] gave an IC50 (M3 binding IC50) of under 2 nM and an IC50 (pIC50) of 0.0631 nM.
For the molecule `O=C(C[N+]12CCC(CC1)[C@@H](OC(=O)C1(c3ccccc3)CCCCCC1)C2)Nc1ccc(Cl)nn1` [Example 21, (3R)-1-{2-[(6-Chloropyridazin-3-yl)amino]-2-oxoethyl}-3-{[(1-phenylcycloheptyl)carbonyl]oxy}-1-azoniabicyclo[2.2.2]octane Bromide], the IC50 (M3 binding IC50) is under 2 nM.
Still for that read-out and setting: as for `O=C(C[N+]12CCC(CC1)[C@@H](OC(=O)C1(c3ccccc3)CCCCCC1)C2)Nc1cccc(F)c1` [Example 22, (3R)-1-{2-[(3-Fluorophenyl)amino]-2-oxoethyl}-3-{[(1-phenylcycloheptyl)carbonyl]oxy}-1-azoniabicyclo[2.2.2]octane Bromide], the figure is under 2 nM; as for `O=C(O[C@H]1C[N+]2(Cc3ccccc3)CCC1CC2)C1(c2ccccc2)CCCCCC1` [Example 6, (3R)-1-Benzyl-3-{[(1-phenylcycloheptyl)carbonyl]oxy}-1-azoniabicyclo[2.2.2]octane Bromide], over 10 nM; as for `COc1ccc(CC[N+]23CCC(CC2)[C@@H](OC(=O)C2(c4ccccc4)CCCCCC2)C3)cc1Cl` [Example 38, (3R)-1-[2-(3-Chloro-4-methoxyphenyl)ethyl]-3-{[(1-phenylcycloheptyl)carbonyl]oxy}-1-azoniabicyclo[2.2.2]octane Bromide], under 2 nM.
Still for that read-out and setting: the result for `Cc1cnc(NC(=O)C[N+]23CCC(CC2)[C@@H](OC(=O)C2(c4ccccc4)CCCCCC2)C3)cn1` [Example 33, (3R)-1-{2-[(5-Methylpyrazin-2-yl)amino]-2-oxoethyl}-3-{[(1-phenylcycloheptyl)carbonyl]oxy}-1-azoniabicyclo[2.2.2]octane Bromide] reads under 2 nM.
On the same count and under the same terms, as for `O=C(C[N+]12CCC(CC1)[C@@H](OC(=O)C1(c3ccccc3)CCCCCC1)C2)NCCCc1ccccc1` [Example 37, (3R)-1-{2-Oxo-2-[(3-phenylpropyl)amino]ethyl}-3-{[(1-phenylcycloheptyl)carbonyl]oxy}-1-azoniabicyclo[2.2.2]octane Bromide], the figure is 2 to 10 nM; as for `O=C(C[N+]12CCC(CC1)[C@@H](OC(=O)C1(c3cccs3)CCCCCC1)C2)Nc1ccon1` [Example 13, (3R)-1-[2-(Isoxazol-3-ylamino)-2-oxoethyl]-3-({[1-(2-thienyl)cycloheptyl]carbonyl}oxy)-1-azoniabicyclo[2.2.2]octane Bromide], under 2 nM.
For `O=C(C[N+]12CCC(CC1)[C@@H](OC(=O)C1(c3ccccc3)CCCC1)C2)Nc1cnccn1` [compound 3, (3R)-1-[2-Oxo-2-(pyrazin-2-ylamino)ethyl]-3-{[(1-phenylcyclopentyl)carbonyl]oxy}-1-azoniabicyclo[2.2.2]octane Bromide, reference compound], 0.316 nM corresponded to half-maximal inhibition (pIC50 of comparative compounds containing a cyclopentyl (C5) ring in place of cycloheptyl (C7)) (IC50).
In the case of `Cc1cc(NC(=O)C[N+]23CCC(CC2)[C@@H](OC(=O)C2(c4ccccc4)CCCCCC2)C3)no1` [Example 20, (3R)-1-{2-[(5-Methylisoxazol-3-yl)amino]-2-oxoethyl}-3-{[(1-phenylcycloheptyl)carbonyl]oxy}-1-azoniabicyclo[2.2.2]octane Bromide], for the setting “M3 binding IC50”, the IC50 is under 2 nM.
On the same count and under the same terms, the result for `O=C(O[C@H]1C[N+]2(Cc3cccc(OC(F)(F)F)c3)CCC1CC2)C1(c2ccccc2)CCCCCC1` [Example 7, (3R)-3-{[(1-Phenylcycloheptyl)carbonyl]oxy}-1-[3-(trifluoromethoxy)benzyl]-1-azoniabicyclo[2.2.2]octane Bromide] reads over 10 nM.
Regarding `Cc1ccc(CC[N+]23CCC(CC2)[C@@H](OC(=O)C2(c4ccccc4)CCCCCC2)C3)s1` [Example 25, (3R)-1-[2-(5-Methyl-2-thienyl)ethyl]-3-{[(1-phenylcycloheptyl)carbonyl]oxy}-1-azoniabicyclo[2.2.2]octane Bromide], the IC50 (M3 binding IC50) was under 2 nM.
Same read-out and setting: the result for `O=C(O[C@H]1C[N+]2(CCOc3ccccc3)CCC1CC2)C1(c2ccccc2)CCCCCC1` [Example 11, (3R)-1-(2-Phenoxyethyl)-3-{[(1-phenylcycloheptyl)carbonyl]oxy}-1-azoniabicyclo[2.2.2]octane bromide] reads under 2 nM; that for `O=C(O[C@H]1C[N+]2(CCc3cccc(Cl)c3)CCC1CC2)C1(c2ccccc2)CCCCCC1` [Example 35, (3R)-1-[2-(3-Chlorophenyl)ethyl]-3-{[(1-phenylcycloheptyl)carbonyl]oxy}-1-azoniabicyclo[2.2.2]octane bromide], under 2 nM.
With `O=C(O[C@H]1C[N+]2(CCc3ccccc3)CCC1CC2)C1(c2ccccc2)CCCCCC1` [Example 26, (3R)-3-{[(1-Phenylcycloheptyl)carbonyl]oxy}-1-(2-phenylethyl)-1-azoniabicyclo[2.2.2]octane Bromide], where the note is “M3 binding IC50”, the IC50 is under 2 nM.
Still for that read-out and setting: the result for `O=C(O[C@H]1C[N+]2(CCc3ccc4c(c3)OCO4)CCC1CC2)C1(c2ccccc2)CCCCCC1` [Example 28, (3R)-1-[2-(1,3-Benzodioxol-5-yl)ethyl]-3-{[(1-phenylcycloheptyl)carbonyl]oxy}-1-azoniabicyclo[2.2.2]octane bBromide] reads under 2 nM.
Regarding `C[N+]12CCC(CC1)[C@@H](OC(=O)C1(c3ccccc3)CCCCCC1)C2` [Example 2, (3R)-1-Methyl-3-{[(1-phenylcycloheptyl)carbonyl]oxy}-1-azoniabicyclo[2.2.2]octane Iodide], the 50% inhibitory concentration (IC50) is, setting by setting: (M3 binding IC50) 2 to 10 nM; (pIC50) 3.16 nM; (pIC50 of cycloheptyl (C7) compound) 3.16 nM.
With `O=C(O[C@H]1C[N+]2(CCCOc3ccccc3)CCC1CC2)C1(c2ccccc2)CCCCCC1` [Example 3, (3R)-1-(3-Phenoxypropyl)-3-{[(1-phenylcycloheptyl)carbonyl]oxy}-1-azoniabicyclo[2.2.2]octane Bromide], the IC50 is under 2 nM (M3 binding IC50) and 0.0501 nM (pIC50).
Under setting [1], `O=C(C[N+]12CCC(CC1)[C@@H](OC(=O)C1(c3ccccc3)CCCCCCC1)C2)Nc1cnccn1` [compound 9, (3R)-1-[2-Oxo-2-(pyrazin-2-ylamino)ethyl]-3-{[(1-phenylcyclooctyl)carbonyl]oxy}-1-azoniabicyclo[2.2.2]octane Bromide, reference compound] gave an IC50 of 0.316 nM.
